This is an account of results in patent publication US10966979B2 (Sandoz AG, priority 2017, dated 2021).

A short description of data set [1]: Accelerated stress test at 40° C./75% RH (physical stability by powder X-ray diffraction and visual control of consistency). The class given is physicochemical. The procedure:
Powder X-ray diffraction was performed with a PANalytical X'Pert PRO diffractometer equipped with a theta/theta coupled goniometer in transmission geometry, Cu-Kalpha1,2 radiation (wavelength 0.15419 nm) with a focusing mirror and a solid state PIXcel detector. Diffractograms were recorded at a tube voltage of 45 kV and a tube current of 40 mA, applying a stepsize of 0.013° 2-Theta with 40 s per step (255 channels) in the angular range of 2° to 40° 2-Theta at ambient conditions.
Example 2: Accelerated Stress Test at 40° C./75% RH With Solid Dispersions Comprising Amorphous Elagolix Sodium and at Least One Silicon-Based Inorganic Compound in a 1:1 Weight Ratio vs. Neat Elagolix Sodium
The physical stability against moisture and temperature stress has been tested for different solid dispersions comprising amorphous elagolix sodium and at least one silicon-based inorganic compound and for neat amorphous elagolix. For this purpose, the solid dispersions were stored open at accelerated stress conditions of 40° C. and 75% RH for 1, 3 and 6 weeks respectively. The physical stability has been investigated by means of powder X-ray diffraction and the consistency of the samples was visually controlled.

The nature of data set [2]: Behaviour of elagolix sodium upon moisture contact (hygroscopicity, deliquescence). The format is physicochemical. The settings on record: no further conditions given. The source says: Said properties require special care and precautionary measures such as a controlled atmosphere during pharmaceutical processing, which renders manufacturing cumbersome and expensive. […] Such formulations may negatively influence patients' compliance, in particular for elderly people having troubles swallowing.
As used herein the term “deliquescent” means the property of a solid form of a compound to readily absorb moisture form the surrounding atmosphere until it deliquesces and forms a solution upon storage for 14 days at 40° C., atmospheric pressure and 75% relative humidity.

On to `COc1cccc(-c2c(C)n(Cc3c(F)cccc3C(F)(F)F)c(=O)n(C[C@H](NCCCC(=O)O)c3ccccc3)c2=O)c1F` [elagolix Na, 4-[[(1R)-2-[5-(2-fluoro-3-methoxyphenyl)-3-[[2-fluoro-6-(trifluoromethyl)phenyl]methyl]-3,6-dihydro-4-methyl-2,6-dioxo-1(2H)-pyrimidinyl]-1-phenylethyl]amino]butanoic acid], for which the “consistency / deliquescence during the stress test” value in data set [1] (accelerated stress conditions of 40° C. and 75% RH, up to 6 weeks) is listed as “deliquesced fairly quickly”. Also, the Initial sample result in data set [1] (solid state and consistency before storage, PXRD and visual control) is “amorphous solid”. Moreover, the “1 week at 40° C./75% RH” value in data set [1] (stored open, 1 week, 40° C., 75% RH, PXRD and visual control) is “deliquescence”. For the same molecule, the “hygroscopicity / deliquescence upon moisture contact” value is “highly hygroscopic” in data set [2] (listed as elagolix sodium) and “deliquesces fairly quickly” in data set [2] (listed as neat amorphous elagolix sodium).
